Source: patent publication US8901072B2, “Glycopeptide and lipoglycopeptide antibiotics with improved solubility” (The Medicines Company, priority 2009, dated 2014)
≈ marks a conversion by molar mass, not a printed value.

Legend:
[1] = Solubility in phosphate buffered saline; format: physicochemical; details: 10 mM phosphate buffered saline (0.138 M NaCl, 2.7 mM KCl), pH 7.4
Method: To a sample of the material of known mass were added known volumes of phosphate buffered saline until complete dissolution is observed. Suspensions were centrifuged for 5 min at 10000 rpm. […] Upon complete dissolution, the solution is diluted until the final concentration is 0.5 mg/mL to ensure that the material remains soluble over the entire range of concentrations.

[2] = tested on: S. aureus ATCC 13709; experiment: In vitro antibacterial susceptibility (MIC, broth microdilution); format: cell-based; details: for MIC against S. aureus ATCC 13709, CAMHB: cation-adjusted Mueller-Hinton broth, 37° C., 18 h; for Antibacterial activity compared with oritavancin 5: deduced from the MIC data of Table 2
Method: Susceptibility of S. aureus strain ATCC13709 to oritavancin (5) and synthesized compounds was determined following the guidelines set by the Clinical and Laboratory Standards Institute (formerly the National Committee for Clinical Laboratory Standards) (M26-A). Compounds were serially diluted two-fold in either DMSO (Oritavancin 5) or in PBS and transferred to cation-adjusted Mueller Hinton broth (CAMHB; Becton Dickinson). 50 μL of compounds diluted in CAMHB was mixed with 100 μL of bacteria diluted in CAMHB in 96-well microtiter plates. The final number of micro-organisms in the assay was 5×10^5 c.f.u. per mL and the final concentration of DMSO in the assay, if present, was 1.25%. All solutions may contain 0.002% Tween as indicated. Assays were set up in duplicate and incubated at 37° C. for 18 h. The concentration of compound that inhibited visible growth was reported as the minimum inhibitory concentration (MIC).

[3] = tested on: S. aureus strain ATCC13709; experiment: Neutropenic mouse thigh infection model; format: in vivo, mice
Method: The susceptibility of S. aureus strain ATCC13709 to oritavancin (5) and selected synthesized compounds in vivo was evaluated with the well accepted neutropenic mouse thigh infection model (Craig, W. A. et al. Journal of Antimicrobial Chemotherapy (1991), 27 (Suppl. C):29-40). Mice were made neutropenic by treatment with cyclophosphamide (150 and 100 mg/kg of body weight administered intraperitoneally 4 days and 1 day prior to infection). Mice were anesthetized briefly with approximately 4% isoflurane just prior to inoculation. The bacterial suspension (0.1 mL) was injected intramuscularly into each thigh (approximately 10^5 colony forming units (CFU)/thigh). The selected agents were administered in 10% (w/w) β-hydroxypropylcyclodextrin in water at a concentration of 10 mg/mL one hour following bacterial inoculation. The animals were humanely sacrificed by CO2 asphyxiation 24 h postinfection. The entire thigh muscle mass including the bone was homogenized and diluted in 0.9% saline and aliquots were plated on Brain-Heart Infusion agar. Following overnight incubation at 37° C., bacteria were enumerated for each thigh and expressed as log10 CFU per thigh. This was performed over three independent experiments and oritavancin (5) was used as a comparator in each.

CC(C)CC(C(=O)NC1C(=O)NC(CC(N)=O)C(=O)NC2C(=O)NC3C(=O)NC(C(=O)NC(C(=O)O)c4cc(O)cc(O)c4-c4cc3ccc4O)C(OC3CC(C)(N)C(O)C(C)O3)c3ccc(c(Cl)c3)Oc3cc2cc(c3OC2OC(CO)C(O)C(O)C2OC2CC(C)(NCc3ccc(-c4ccc(Cl)cc4)cc3)C(O)C(C)O2)Oc2ccc(cc2Cl)C1O)N(C)C(=O)OCOC(=O)C(CCCCN)NC(=O)C(N)CCCCN (centres unmarked) [Compound 56]
Solubility (mg/mL) PBS [1]: >5 mg/mL | MIC against S. aureus ATCC 13709, CAMHB + 0.002% tween [2]: 0.5 µg/mL | MIC against S. aureus ATCC 13709, CAMHB + 50% human serum [2]: 4 µg/mL | MIC against S. aureus ATCC 13709, CAMHB + 50% mouse serum [2]: 0.5 µg/mL | MIC against S. aureus ATCC 13709, CAMHB + 50% rat serum [2]: 0.25 µg/mL | MIC against S. aureus ATCC 13709, CAMHB [2]: 2 µg/mL (≈ 0.942 µM) | Antibacterial activity compared with oritavancin 5 [2]: within an order of magnitude of that of oritavancin 5

CC(C)CC(C(=O)NC1C(=O)NC(CC(N)=O)C(=O)NC2C(=O)NC3C(=O)NC(C(=O)NC(C(=O)O)c4cc(O)cc(O)c4-c4cc3ccc4O)C(OC3CC(C)(N)C(O)C(C)O3)c3ccc(c(Cl)c3)Oc3cc2cc(c3OC2OC(CO)C(O)C(O)C2OC2CC(C)(NCc3ccc(-c4ccc(Cl)cc4)cc3)C(O)C(C)O2)Oc2ccc(cc2Cl)C1O)N(C)C(=O)CNC(=O)C(N)CCCCN (centres unmarked) [Compound 61]
Solubility (mg/mL) PBS [1]: <0.5 mg/mL | MIC against S. aureus ATCC 13709, CAMHB + 0.002% tween [2]: 0.25 µg/mL | MIC against S. aureus ATCC 13709, CAMHB + 50% human serum [2]: 0.25 µg/mL | MIC against S. aureus ATCC 13709, CAMHB + 50% mouse serum [2]: 1 µg/mL | MIC against S. aureus ATCC 13709, CAMHB + 50% rat serum [2]: 0.5 µg/mL | MIC against S. aureus ATCC 13709, CAMHB [2]: 2 µg/mL (≈ 1.01 µM) | Antibacterial activity compared with oritavancin 5 [2]: within an order of magnitude of that of oritavancin 5

CNC(CC(C)C)C(=O)NC1C(=O)NC(CC(N)=O)C(=O)NC2C(=O)NC3C(=O)NC(C(=O)NC(C(=O)OCC(=O)NCCCNCCCN)c4cc(O)cc(O)c4-c4cc3ccc4O)C(OC3CC(C)(N)C(O)C(C)O3)c3ccc(c(Cl)c3)Oc3cc2cc(c3OC2OC(CO)C(O)C(O)C2OC2CC(C)(NCc3ccc(-c4ccc(Cl)cc4)cc3)C(O)C(C)O2)Oc2ccc(cc2Cl)C1O (centres unmarked) [Compound 66]
Solubility (mg/mL) PBS [1]: >100 mg/mL | MIC against S. aureus ATCC 13709, CAMHB + 0.002% tween [2]: 0.25 µg/mL | MIC against S. aureus ATCC 13709, CAMHB + 50% human serum [2]: 0.125 µg/mL | MIC against S. aureus ATCC 13709, CAMHB + 50% mouse serum [2]: 1 µg/mL | MIC against S. aureus ATCC 13709, CAMHB + 50% rat serum [2]: 0.125 µg/mL | MIC against S. aureus ATCC 13709, CAMHB [2]: 2 µg/mL (≈ 1.02 µM) | Antibacterial activity compared with oritavancin 5 [2]: within an order of magnitude of that of oritavancin 5 | In vivo antibacterial efficacy compared with oritavancin ([3]; deduced from the data of Table 3): within the same order of magnitude than oritavancin itself | Recovered bacterial titers per thigh, 1 mg/kg ([3]; neutropenic mice, 1 mg/kg one hour after inoculation, 24 h postinfection): 8.16 ± 0.49 Log10 CFU/thigh | Recovered bacterial titers per thigh, 10 mg/kg ([3]; neutropenic mice, 10 mg/kg one hour after inoculation, 24 h postinfection): 3.96 ± 1.74 Log10 CFU/thigh | Recovered bacterial titers per thigh, 40 mg/kg ([3]; neutropenic mice, 40 mg/kg one hour after inoculation, 24 h postinfection): 4.04 ± 0.51 Log10 CFU/thigh

CC(C)CC(C(=O)NC1C(=O)NC(CC(N)=O)C(=O)NC2C(=O)NC3C(=O)NC(C(=O)NC(C(=O)O)c4cc(O)cc(O)c4-c4cc3ccc4O)C(OC3CC(C)(N)C(O)C(C)O3)c3ccc(c(Cl)c3)Oc3cc2cc(c3OC2OC(CO)C(O)C(O)C2OC2CC(C)(NCc3ccc(-c4ccc(Cl)cc4)cc3)C(O)C(C)O2)Oc2ccc(cc2Cl)C1O)N(C)C(=O)OCc1ccc(OP(=O)(O)O)cc1 (centres unmarked) [Compound 70]
Solubility (mg/mL) PBS [1]: 8 mg/mL (≈ 3950 µM) | MIC against S. aureus ATCC 13709, CAMHB + 0.002% tween [2]: 1 µg/mL | MIC against S. aureus ATCC 13709, CAMHB + 50% human serum [2]: 32 µg/mL | MIC against S. aureus ATCC 13709, CAMHB + 50% mouse serum [2]: 32 µg/mL | MIC against S. aureus ATCC 13709, CAMHB + 50% rat serum [2]: >32 µg/mL | MIC against S. aureus ATCC 13709, CAMHB [2]: 2 µg/mL (≈ 0.989 µM) | Antibacterial activity compared with oritavancin 5 [2]: weaker activities
